Laboratory results: PubChem BioAssay (NCI)
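Here, GI50 denotes the concentration required for 50% inhibition of growth. TGI is the concentration that stops growth completely.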

Legend:
Test in all cases: NCI tumour cell line growth inhibition, 384-well format
MCF7 breast = test system: MCF7 breast
SK-MEL-28 melanoma = test system: SK-MEL-28 melanoma
NCI/ADR-RES ovarian = test system: NCI/ADR-RES ovarian
MDA-MB-468 breast = test system: MDA-MB-468 breast
SR leukemia = test system: SR leukemia
NCI-H23 lung = test system: NCI-H23 lung
PC-3 prostate = test system: PC-3 prostate
SF-295 CNS = test system: SF-295 CNS
NCI-H322M lung = test system: NCI-H322M lung
MOLT-4 leukemia = test system: MOLT-4 leukemia
UACC-62 melanoma = test system: UACC-62 melanoma
TK-10 renal = test system: TK-10 renal
UO-31 renal = test system: UO-31 renal
HCT-15 colon = test system: HCT-15 colon
SK-MEL-2 melanoma = test system: SK-MEL-2 melanoma
U251 glioblastoma = test system: U251 glioblastoma
HL-60(TB) leukemia = test system: HL-60(TB) leukemia
CAKI-1 renal = test system: CAKI-1 renal
A498 renal = test system: A498 renal
A549 NSCLC = test system: A549 NSCLC
SNB-19 CNS = test system: SNB-19 CNS
EKVX NSCLC = test system: EKVX NSCLC
K-562 leukemia = test system: K-562 leukemia
SN12C renal = test system: SN12C renal
SF-539 CNS = test system: SF-539 CNS
NCI-H460 NSCLC = test system: NCI-H460 NSCLC
HT29 colon = test system: HT29 colon
HOP-92 NSCLC = test system: HOP-92 NSCLC
HCT-116 colon = test system: HCT-116 colon
M14 melanoma = test system: M14 melanoma

CC1(C)CNc2cc(NC(=O)c3cccnc3NCc3ccncc3)ccc21
TGI (MCF7 breast): > 100 µM
GI50 (SK-MEL-28 melanoma): 37.8 µM
TGI (SK-MEL-28 melanoma): > 100 µM
GI50 (NCI/ADR-RES ovarian): 17.8 µM
TGI (NCI/ADR-RES ovarian): 42.7 µM
GI50 (MDA-MB-468 breast): 9.35 µM
TGI (MDA-MB-468 breast): 25.1 µM
GI50 (SR leukemia): 11.4 µM
TGI (SR leukemia): 24.3 µM
GI50 (NCI-H23 lung): 25.8 µM
TGI (NCI-H23 lung): 82.9 µM
GI50 (PC-3 prostate): 43.2 µM
TGI (PC-3 prostate): > 100 µM
GI50 (SF-295 CNS): 35.7 µM
TGI (SF-295 CNS): > 100 µM
GI50 (NCI-H322M lung): 33.4 µM
TGI (NCI-H322M lung): > 100 µM
GI50 (MOLT-4 leukemia): 12.7 µM
TGI (MOLT-4 leukemia): 26.5 µM
GI50 (UACC-62 melanoma): 19.1 µM
TGI (UACC-62 melanoma): 97.7 µM
GI50 (TK-10 renal): 14.2 µM
TGI (TK-10 renal): > 100 µM
GI50 (UO-31 renal): 25 µM
TGI (UO-31 renal): 85.5 µM
GI50 (HCT-15 colon): 16.6 µM
TGI (HCT-15 colon): 44.7 µM
GI50 (SK-MEL-2 melanoma): 39.2 µM
TGI (SK-MEL-2 melanoma): 58.3 µM
GI50 (U251 glioblastoma): 46 µM
TGI (U251 glioblastoma): > 100 µM
GI50 (HL-60(TB) leukemia): 25.5 µM
TGI (HL-60(TB) leukemia): 42.4 µM
GI50 (CAKI-1 renal): 19.4 µM
TGI (CAKI-1 renal): > 100 µM
GI50 (A498 renal): 25.6 µM
TGI (A498 renal): > 100 µM
GI50 (A549 NSCLC): 31.2 µM
TGI (A549 NSCLC): > 100 µM
GI50 (SNB-19 CNS): 44.8 µM
TGI (SNB-19 CNS): > 100 µM
GI50 (EKVX NSCLC): 17.9 µM
TGI (EKVX NSCLC): 48.6 µM
GI50 (K-562 leukemia): 12.7 µM
TGI (K-562 leukemia): 52.5 µM
GI50 (SN12C renal): 30.4 µM
TGI (SN12C renal): > 100 µM
GI50 (SF-539 CNS): 14.3 µM
TGI (SF-539 CNS): > 100 µM
GI50 (NCI-H460 NSCLC): 25.1 µM
TGI (NCI-H460 NSCLC): > 100 µM
GI50 (HT29 colon): 24.6 µM
TGI (HT29 colon): 66.8 µM
GI50 (HOP-92 NSCLC): 21.1 µM
TGI (HOP-92 NSCLC): 83.3 µM
GI50 (HCT-116 colon): 46.7 µM
TGI (HCT-116 colon): > 100 µM
GI50 (M14 melanoma): 24.9 µM
TGI (M14 melanoma): > 100 µM
